Results taken from PMC9516332 (Frontiers in Oncology, 2022).
pIC50: −log10 of the molar value. Where two headings read alike, the source gives them in different places.

System: 134 cancer cell lines
Test: Cell viability assay (ATPlite, 72 hours), IC50 on cancer cell line panel

pIC50 (Homo sapiens, MIA PaCa-2, read-out: IC50 in cell proliferation assay, MIA PaCa-2 cell line): 5.41
pIC50 (Homo sapiens, MKN-45, read-out: IC50 in cell proliferation assay, MKN45 cell line (MET amplification)): 5.37
pIC50 (Homo sapiens, MOLM-13, read-out: IC50 in cell proliferation assay, MOLM-13 cell line (FLT3 ITD)): 5.93
pIC50 (Homo sapiens, MOLT-4, read-out: IC50 in cell proliferation assay, MOLT-4 cell line): 5.44
pIC50 (Homo sapiens, MV4-11, read-out: IC50 in cell proliferation assay, MV4-11 cell line (FLT3 ITD)): 6.64
pIC50 (Homo sapiens, MeWo, read-out: IC50 in cell proliferation assay, MeWo cell line): 5.41
pIC50 (Homo sapiens, NCCIT, read-out: IC50 in cell proliferation assay, NCC-IT cell line): 5.35
pIC50 (Homo sapiens, NCI-H82, read-out: IC50 in cell proliferation assay, cell line NCI-H82): 5.41
pIC50 (Homo sapiens, NCI-H460, read-out: IC50 in cell proliferation assay, NCI-H460 cell line): 5.33
pIC50 (Homo sapiens, NCI-H661, read-out: IC50 in cell proliferation assay, NCI-H661 cell line): 5.43
pIC50 (Homo sapiens, NCI-H716, read-out: IC50 in cell proliferation assay, cell line NCI-H716 (FGFR2-COL14A1)): 5.31
pIC50 (Homo sapiens, NCI-H1650, read-out: IC50 in cell proliferation assay, NCI-H1650 cell line (EGFR exon19del)): 8.22
pIC50 (Homo sapiens, NCI-H1975, read-out: IC50 in cell proliferation assay, NCI-H1975 cell line (EGFR p.L858R + p.T790M)): 6.82
pIC50 (Homo sapiens, NCI-H2228, read-out: IC50 in cell proliferation assay, NCI-H2228 cell line (EML4-ALK)): 5.31
pIC50 (Homo sapiens, OVCAR-3, read-out: IC50 in cell proliferation assay, cell line OVCAR-3): 7.64
pIC50 (Homo sapiens, PFSK-1, read-out: IC50 in cell proliferation assay, cell line PFSK-1): 5.35
pIC50 (Homo sapiens, RL95-2, read-out: IC50 in cell proliferation assay, cell line RL95-2 (EGFR p.A289V)): 8.10
pIC50 (Homo sapiens, RPMI-7951, read-out: IC50 in cell proliferation assay, cell line RPMI-7951 (BRAF p.V600E)): 5.40
pIC50 (Homo sapiens, RS4-11, read-out: IC50 in cell proliferation assay, cell line RS4;11): 5.47
pIC50 (Homo sapiens, Rec1, read-out: IC50 in cell proliferation assay, cell line REC-1): 6.07
pIC50 (Homo sapiens, SHP77, read-out: IC50 in cell proliferation assay, cell line SHP-77): 5.29
pIC50 (Homo sapiens, SK-BR-3, read-out: IC50 in cell proliferation assay, cell line SK-BR-3 (ERBB2 amplification)): 7.57
pIC50 (Homo sapiens, SK-N-AS, read-out: IC50 in cell proliferation assay, cell line SK-N-AS): 5.51
pIC50 (Homo sapiens, SK-N-FI, read-out: IC50 in cell proliferation assay, cell line SK-N-FI): 5.47
pIC50 (Homo sapiens, SK-N-MC, read-out: IC50 in cell proliferation assay, cell line SK-N-MC): 5.53
pIC50 (Homo sapiens, SK-N-SH, read-out: IC50 in cell proliferation assay, cell line SK-N-SH (ALK p.F1174L)): 5.61
pIC50 (Homo sapiens, SNU-5, read-out: IC50 in cell proliferation assay, cell line SNU-5 (MET amplification)): 5.47
pIC50 (Homo sapiens, SNU-16, read-out: IC50 in cell proliferation assay, cell line SNU-16 (FGFR2 amplification)): 5.41
pIC50 (Homo sapiens, SNU-C2B, read-out: IC50 in cell proliferation assay, cell line SNU-C2B (EGFR p.R165Q)): 5.25
pIC50 (Homo sapiens, SU-DHL-1, read-out: IC50 in cell proliferation assay, cell line SU-DHL-1 (NPM1-ALK)): 5.45
pIC50 (Homo sapiens, SU-DHL-6, read-out: IC50 in cell proliferation assay, cell line SU-DHL-6): 5.59
pIC50 (Homo sapiens, SUP-T1, read-out: IC50 in cell proliferation assay, cell line SUP-T1): 5.34
pIC50 (Homo sapiens, SW48, read-out: IC50 in cell proliferation assay, cell line SW48 (EGFR p.G719S)): 9.20
pIC50 (Homo sapiens, SW480, read-out: IC50 in cell proliferation assay, cell line SW480): 5.32
pIC50 (Homo sapiens, SW626, read-out: IC50 in cell proliferation assay, cell line SW626): 5.28
pIC50 (Homo sapiens, SW780, read-out: IC50 in cell proliferation assay, cell line SW780 (FGFR3-BAIAP2L1)): 5.34
pIC50 (Homo sapiens, SW837, read-out: IC50 in cell proliferation assay, cell line SW837): 5.19
pIC50 (Homo sapiens, SW872, read-out: IC50 in cell proliferation assay, cell line SW872 (BRAF p.V600E)): 5.30
pIC50 (Homo sapiens, SW900, read-out: IC50 in cell proliferation assay, cell line SW900): 5.32
pIC50 (Homo sapiens, SW948, read-out: IC50 in cell proliferation assay, cell line SW948): 5.32
pIC50 (Homo sapiens, SW982, read-out: IC50 in cell proliferation assay, cell line SW982 (BRAF p.V600E)): 5.40
pIC50 (Homo sapiens, SW-620, read-out: IC50 in cell proliferation assay, cell line SW620): 5.29
pIC50 (Homo sapiens, T98G, read-out: IC50 in cell proliferation assay, cell line T98G): 5.34
pIC50 (Homo sapiens, TCC-SUP, read-out: IC50 in cell proliferation assay, cell line TCCSUP): 5.47
pIC50 (Homo sapiens, THP-1, read-out: IC50 in cell proliferation assay, cell line THP-1): 5.41
pIC50 (Homo sapiens, U2OS, read-out: IC50 in cell proliferation assay, cell line U2OS): 5.48
pIC50 (Homo sapiens, U-87 MG, read-out: IC50 in cell proliferation assay, cell line U-87MG ATCC): 5.36
pIC50 (Homo sapiens, U-118-MG, read-out: IC50 in cell proliferation assay, cell line U-118MG): 5.44
pIC50 (Homo sapiens, UMUC3, read-out: IC50 in cell proliferation assay, cell line UM-UC-3): 5.50
pIC50 (Hs766T, read-out: IC50 in cell proliferation assay, Hs 766T cell line): 5.30
pIC50 (L-82, read-out: IC50 in cell proliferation assay, L-82 cell line (NPM1-ALK)): 5.78
pIC50 (Rh30, read-out: IC50 in cell proliferation assay, cell line Rh30): 5.41
pIC50 (read-out: IC50 in cell proliferation assay, 11-18 cell line (EGFR p.L858R)): 8.70
pIC50 (read-out: IC50 in cell proliferation assay, Hs 852.T cell line): 5.43
pIC50 (read-out: IC50 in cell proliferation assay, JAR cell line): 5.52
pIC50 (read-out: IC50 in cell proliferation assay, cell line 5637): 7.51
pIC50 (read-out: IC50 in cell proliferation assay, cell line A-388): 7.72
pIC50 (read-out: IC50 in cell proliferation assay, cell line DB): 5.44
pIC50 (read-out: IC50 in cell proliferation assay, cell line DEL (NPM1-ALK)): 5.69
pIC50 (read-out: IC50 in cell proliferation assay, cell line ES-2 (BRAF p.V600E)): 5.52
pIC50 (read-out: IC50 in cell proliferation assay, cell line PA-1): 5.57
pIC50 (read-out: IC50 in cell proliferation assay, cell line PC-3): 5.28
pIC50 (read-out: IC50 in cell proliferation assay, cell line RD): 5.60
pIC50 (read-out: IC50 in cell proliferation assay, cell line RKO (BRAF p.V600E)): 5.45
pIC50 (read-out: IC50 in cell proliferation assay, cell line RL): 5.38
pIC50 (read-out: IC50 in cell proliferation assay, cell line RT-4 (FGFR3-TACC3)): 7.85
pIC50 (read-out: IC50 in cell proliferation assay, cell line SR (NPM1-ALK)): 5.45
pIC50 (read-out: IC50 in cell proliferation assay, cell line T24): 5.52
pIC50 (read-out: IC50 in cell proliferation assay, cell line TT (RET p.C634W)): 5.32
pIC50 (read-out: IC50 in cell proliferation assay, cell line VA-ES-BJ): 5.45
SMILES: COc1cc2ncnc(Nc3ccc(F)c(Cl)c3)c2cc1NC(=O)/C=C/CN1CCCCC1 [dacomitinib]
